Laboratory results published in the NIST ThermoML archive (doi:10.1016/j.jct.2019.05.017).
Numbers after ± are expanded uncertainties.

Key:
[1] = 101.3 kPa, Liquid, Vibrating tube method
[2] = wn = mass fraction of the nth substance listed; conditions: 101.3 kPa, Liquid, Vibrating tube method

Q: Which results are given for NCCO [2-aminoethan-1-ol]?
A: mass density ([1]; 303.15 K): 1008.8 ± 2 kg/m3; mass density ([1]; 313.15 K): 1000.9 ± 2 kg/m3

Q: Which results are given for CCOCCO [2-ethoxyethan-1-ol]?
A: mass density ([1]; 293.15 K): 929.7 ± 2 kg/m3; mass density ([1]; 298.15 K): 925.2 ± 2 kg/m3; mass density ([1]; 303.15 K): 920.7 ± 2 kg/m3; mass density ([1]; 308.15 K): 916.1 ± 2 kg/m3; mass density ([1]; 313.15 K): 911.5 ± 2 kg/m3; mass density ([1]; 318.15 K): 906.8 ± 2 kg/m3; mass density ([1]; 323.15 K): 902.1 ± 2 kg/m3; mass density ([1]; 328.15 K): 897.4 ± 2 kg/m3; mass density ([1]; 333.15 K): 892.6 ± 2 kg/m3

Q: Which results are given for CCOCCO [2-ethoxyethan-1-ol] + NCCO?
A: mass density ([2]; 293.15 K, w2 = 0.318): 960.2 ± 2 kg/m3; mass density ([2]; 298.15 K, w2 = 0.318): 956 ± 2 kg/m3; mass density ([2]; 303.15 K, w2 = 0.318): 951.7 ± 2 kg/m3; mass density ([2]; 308.15 K, w2 = 0.318): 947.4 ± 2 kg/m3; mass density ([2]; 313.15 K, w2 = 0.318): 943 ± 2 kg/m3; mass density ([2]; 318.15 K, w2 = 0.318): 938.7 ± 2 kg/m3; mass density ([2]; 323.15 K, w2 = 0.318): 934.3 ± 2 kg/m3; mass density ([2]; 328.15 K, w2 = 0.318): 929.8 ± 2 kg/m3; mass density ([2]; 333.15 K, w2 = 0.318): 925.4 ± 2 kg/m3

Q: With COCCO [2-methoxyethan-1-ol] as the compound, how does the mass density ([1]; 283.15 K) read?
A: 974.7 ± 2 kg/m3

Q: What about the mass density ([1]; 288.15 K) of the same compound?
A: 969.9 ± 2 kg/m3

Q: And the mass density ([1]; 293.15 K)?
A: 964.7 ± 2 kg/m3

Q: What about the mass density ([1]; 298.15 K) of the same compound?
A: 960.1 ± 2 kg/m3

Q: And the mass density ([1]; 303.15 K)?
A: 955.5 ± 2 kg/m3

Q: And the mass density ([1]; 308.15 K)?
A: 950.9 ± 2 kg/m3

Q: And the mass density ([1]; 313.15 K)?
A: 946.2 ± 2 kg/m3

Q: And the mass density ([1]; 318.15 K)?
A: 941.5 ± 2 kg/m3

Q: What about the mass density ([1]; 323.15 K) of the same compound?
A: 936.7 ± 2 kg/m3

Q: What about the mass density ([1]; 328.15 K) of the same compound?
A: 932 ± 2 kg/m3

Q: And the mass density ([1]; 333.15 K)?
A: 927.2 ± 2 kg/m3

Q: Which mass density ([2]; 293.15 K, w2 = 0.31) does the source give for COCCO [2-methoxyethan-1-ol] + NCCO here?
A: 985.5 ± 2 kg/m3

Q: What about the mass density ([2]; 298.15 K, w2 = 0.31) of the same compound?
A: 981.1 ± 2 kg/m3

Q: What about the mass density ([2]; 303.15 K, w2 = 0.31) of the same compound?
A: 976.8 ± 2 kg/m3

Q: What about the mass density ([2]; 308.15 K, w2 = 0.31) of the same compound?
A: 972.5 ± 2 kg/m3

Q: What about the mass density ([2]; 313.15 K, w2 = 0.31) of the same compound?
A: 968.1 ± 2 kg/m3

Q: What about the mass density ([2]; 318.15 K, w2 = 0.31) of the same compound?
A: 963.7 ± 2 kg/m3

Q: And the mass density ([2]; 323.15 K, w2 = 0.31)?
A: 959.2 ± 2 kg/m3

Q: What about the mass density ([2]; 328.15 K, w2 = 0.31) of the same compound?
A: 954.8 ± 2 kg/m3

Q: And the mass density ([2]; 333.15 K, w2 = 0.31)?
A: 950.3 ± 2 kg/m3
